Measurements: patent publication US12617779B2, “Self degradation-type CDK9 inhibitor prodrug and liposome encapsulating same” (Sumitomo Pharma Co., Ltd., priority 2021, dated 2026)

Columns and labels:
[1] = Evaluation of conversion rate to active form in buffer solution (Experimental Example 1); assay type: physicochemical
How it was run: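 Conversion to Alvocidib was followed by HPLC over 3 hours at 37° C, with test compounds at 25 umol/L in 50 mM citrate or phosphate buffers spanning pH 5.0–7.4.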

[2] = Stability evaluation of solution formulation (Experimental Example 2); assay type: physicochemical; conditions: for Production rate of Alvocidib / Residual rate: solution formulation
Experimental: For Example 1, Example 2, Example 5, Example 6, Comparative Example 13 and Comparative Example 14, the attrition rate of the test compound and the conversion rate of the test compound to Alvocidib in a solution formulation were calculated by the following method.
Example 1, Example 2, Example 5, Example 6, Comparative Example 13 and Comparative Example 14 were each added to buffer solutions adjusted to pH 3.0, 4.0 and 5.0, respectively, at a concentration of 0.1 mg/mL, and left at 5° C. After 0, 1, 2 and 4 weeks, the residual rates of the compounds of Example 1, Example 2, […], Comparative Example 13 and Comparative Example 14 and the production rate of Alvocidib were determined by HPLC.
The buffer solutions used at each pH are as follows. • pH 3.0: 5 mM tartrate buffer solution/10% sucrose solution (pH 3.0) • pH 4.0: 5 mM tartrate buffer solution/10% sucrose solution (pH 4.0) • pH 5.0: 5 mM tartrate buffer solution/10% sucrose solution (pH 5.0)
The measurement conditions for HPLC are as follows.
• column: Acquity UPLC BEH C18, 1.7 um, 50×2.1 mm • column temperature: 40° C. • mobile phase: • A: water containing 0.1% trifluoroacetic acid • B: acetonitrile • A/B (min): • 80/20(0)→75/25(3)→0/100(3.5)→0/100(4)→80/20(4.01)→80/20(5) • flow rate: 0.8 mL/min • detection: ultraviolet visible detector, measurement wavelength 254 nm • injection: 3 μL

CNCCN(C)C(=O)Oc1cc(O)c2c(=O)cc(-c3ccccc3Cl)oc2c1[C@H]1CCN(C)C[C@H]1O [Comparative Example 14, reference compound]
Production rate of Alvocidib ([1]; pH5.0, 0 hr): 1.2% | Residual rate ([1]; pH5.0, 0 hr): 97.3% | Stability in buffer solution at pH 5 ([1]; pH 5, 37° C., up to 2 or 3 hours): unstable | Conversion to Alvocidib at pH 5 within 3 hours ([1]; pH 5, 37° C., within 3 hours): mostly converted to Alvocidib | Production rate of Alvocidib ([1]; pH5.0, 0.5 hr): 17.9% | Residual rate ([1]; pH5.0, 0.5 hr): 80.3% | Production rate of Alvocidib ([1]; pH5.0, 1 hr): 31.1% | Residual rate ([1]; pH5.0, 1 hr): 66.8% | Production rate of Alvocidib ([1]; pH5.0, 2 hr): 53.7% | Residual rate ([1]; pH5.0, 2 hr): 45.6% | Production rate of Alvocidib ([1]; pH5.0, 3 hr): 68.5% | Residual rate ([1]; pH5.0, 3 hr): 30.7% | Production rate of Alvocidib ([1]; pH5.5, 0 hr): 1.4% | Residual rate ([1]; pH5.5, 0 hr): 97.2% | Production rate of Alvocidib ([1]; pH5.5, 0.5 hr): 44.2% | Residual rate ([1]; pH5.5, 0.5 hr): 53.8% | Production rate of Alvocidib ([1]; pH5.5, 1 hr): 67.2% | Residual rate ([1]; pH5.5, 1 hr): 30.3% | Production rate of Alvocidib ([1]; pH5.5, 2 hr): 88.5% | Residual rate ([1]; pH5.5, 2 hr): 8.7% | Production rate of Alvocidib ([1]; pH5.5, 3 hr): 93.9% | Residual rate ([1]; pH5.5, 3 hr): 2.9% | Production rate of Alvocidib ([1]; pH6.0, 0 hr): 1.9% | Residual rate ([1]; pH6.0, 0 hr): 96.7% | Production rate of Alvocidib ([1]; pH6.0, 0.5 hr): 88.1% | Residual rate ([1]; pH6.0, 0.5 hr): 9.0% | Production rate of Alvocidib ([1]; pH6.0, 1 hr): 95.7% | Residual rate ([1]; pH6.0, 1 hr): 1.2% | Production rate of Alvocidib ([1]; pH6.0, 2 hr): 97.0% | Residual rate ([1]; pH6.0, 2 hr): 0.0% | Production rate of Alvocidib ([1]; pH6.0, 3 hr): 97.1% | Residual rate ([1]; pH6.0, 3 hr): 0.0% | Production rate of Alvocidib ([1]; pH6.5, 0 hr): 3.2% | Residual rate ([1]; pH6.5, 0 hr): 95.4% | Production rate of Alvocidib ([1]; pH6.5, 0.5 hr): 97.0% | Residual rate ([1]; pH6.5, 0.5 hr): 0.0% | Production rate of Alvocidib ([1]; pH6.5, 1 hr): 96.7% | Residual rate ([1]; pH6.5, 1 hr): 0.0% | Production rate of Alvocidib ([1]; pH6.5, 2 hr): 98.2% | Residual rate ([1]; pH6.5, 2 hr): 0.0% | Production rate of Alvocidib ([1]; pH6.5, 3 hr): 97.6% | Residual rate ([1]; pH6.5, 3 hr): 0.0% | Production rate of Alvocidib ([1]; pH7.0, 0 hr): 6.9% | Residual rate ([1]; pH7.0, 0 hr): 91.7% | Production rate of Alvocidib ([1]; pH7.0, 0.5 hr): 96.8% | Residual rate ([1]; pH7.0, 0.5 hr): 0.0% | Production rate of Alvocidib ([1]; pH7.0, 1 hr): 96.8% | Residual rate ([1]; pH7.0, 1 hr): 0.0% | Production rate of Alvocidib ([1]; pH7.0, 2 hr): 96.7% | Residual rate ([1]; pH7.0, 2 hr): 0.0% | Production rate of Alvocidib ([1]; pH7.0, 3 hr): 96.7% | Residual rate ([1]; pH7.0, 3 hr): 0.0% | Production rate of Alvocidib ([1]; pH7.4, 0 hr): 14.2% | Residual rate ([1]; pH7.4, 0 hr): 84.4% | Production rate of Alvocidib ([1]; pH7.4, 0.5 hr): 97.3% | Residual rate ([1]; pH7.4, 0.5 hr): 0.0% | Production rate of Alvocidib ([1]; pH7.4, 1 hr): 97.2% | Residual rate ([1]; pH7.4, 1 hr): 0.0% | Production rate of Alvocidib ([1]; pH7.4, 2 hr): 97.2% | Residual rate ([1]; pH7.4, 2 hr): 0.0% | Production rate of Alvocidib ([1]; pH7.4, 3 hr): 97.2% | Residual rate ([1]; pH7.4, 3 hr): 0.0% | Stability / conversion to Alvocidib in solution formulation at pH 3 ([2]; pH 3, 5° C., up to 4 weeks): gradually converted to Alvocidib | Conversion to Alvocidib in solution formulation at pH 5 after 4 weeks ([2]; pH 5, 5° C., after 4 weeks): almost completely converted to Alvocidib | Production rate of Alvocidib ([2]; pH3.0, 0 week): 1.3% | Residual rate ([2]; pH3.0, 0 week): 98.5% | Production rate of Alvocidib ([2]; pH3.0, 1 week): 2.7% | Residual rate ([2]; pH3.0, 1 week): 97.1% | Production rate of Alvocidib ([2]; pH3.0, 2 week): 3.9% | Residual rate ([2]; pH3.0, 2 week): 95.8% | Production rate of Alvocidib ([2]; pH3.0, 4 week): 6.1% | Residual rate ([2]; pH3.0, 4 week): 93.6% | Production rate of Alvocidib ([2]; pH4.0, 0 week): 2.2% | Residual rate ([2]; pH4.0, 0 week): 97.5% | Production rate of Alvocidib ([2]; pH4.0, 1 week): 12.8% | Residual rate ([2]; pH4.0, 1 week): 86.7% | Production rate of Alvocidib ([2]; pH4.0, 2 week): 21.1% | Residual rate ([2]; pH4.0, 2 week): 78.3% | Production rate of Alvocidib ([2]; pH4.0, 4 week): 36.2% | Residual rate ([2]; pH4.0, 4 week): 63.0% | Production rate of Alvocidib ([2]; pH5.0, 0 week): 13.2% | Residual rate ([2]; pH5.0, 0 week): 86.4% | Production rate of Alvocidib ([2]; pH5.0, 1 week): 72.5% | Residual rate ([2]; pH5.0, 1 week): 25.7% | Production rate of Alvocidib ([2]; pH5.0, 2 week): 90.1% | Residual rate ([2]; pH5.0, 2 week): 8.1% | Production rate of Alvocidib ([2]; pH5.0, 4 week): 97.1% | Residual rate ([2]; pH5.0, 4 week): 1.1%
